System in one data set: not listed separately
Kind of data set: Therapeutic index, ratio of CC50 for human CEM cells to EC50 for HCV genotype 1b. It counts as cell-based, CCRF-CEM. The note with it: CEM cells (CC50) versus HCV genotype 1b (EC50).
Turning to `COC(=O)N[C@@H](CS(=O)(=O)Cc1ccccc1)C(=O)N1CCC[C@H]1c1ncc(-c2ccc(-c3ccc(-c4cnc([C@@H]5CCCN5C(=O)[C@@H](NC(=O)OC)C(C)C)[nH]4)cc3)cc2)[nH]1`, the selectivity ratio is > 1e+06.

Take `COC(=O)N[C@@H](C[S+]([O-])Cc1ccccc1)C(=O)N1CCC[C@H]1c1ncc(-c2ccc(-c3ccc(-c4cnc([C@@H]5CCCN5C(=O)[C@@H](NC(=O)OC)C(C)C)[nH]4)cc3)cc2)[nH]1` (stereo partly specified): the selectivity ratio was > 1e+06.

Take `COC(=O)N[C@@H](CCSC)C(=O)N1CCC[C@H]1c1ncc(-c2ccc(-c3ccc(-c4cnc([C@@H]5CCCN5C(=O)[C@@H](NC(=O)OC)C(C)C)[nH]4)cc3)cc2)[nH]1`: the selectivity ratio is > 1e+06.

In a further data set the test system is PBMC. Kind of data set: Cytotoxicity against PBMC (unknown origin). It counts as cell-based.
Settings: not given
In general, CC50 refers to the concentration giving 50% cytotoxicity. `COC(=O)N[C@@H](CS(=O)(=O)Cc1ccccc1)C(=O)N1CCC[C@H]1c1ncc(-c2ccc(-c3ccc(-c4cnc([C@@H]5CCCN5C(=O)[C@@H](NC(=O)OC)C(C)C)[nH]4)cc3)cc2)[nH]1` displayed a CC50 of 21000 nM.

Consider `COC(=O)N[C@@H](C[S+]([O-])Cc1ccccc1)C(=O)N1CCC[C@H]1c1ncc(-c2ccc(-c3ccc(-c4cnc([C@@H]5CCCN5C(=O)[C@@H](NC(=O)OC)C(C)C)[nH]4)cc3)cc2)[nH]1` (stereo partly specified), for which the CC50 stood at 42000 nM.

With `COC(=O)N[C@@H](CCSC)C(=O)N1CCC[C@H]1c1ncc(-c2ccc(-c3ccc(-c4cnc([C@@H]5CCCN5C(=O)[C@@H](NC(=O)OC)C(C)C)[nH]4)cc3)cc2)[nH]1`, the midpoint of cytotoxicity, the CC50, lay at 41000 nM.

In a further data set the test system is Hepatitis C virus. Kind of data set: Antiviral activity against wild type HCV genotype 1b infected in human HuH7 cells assessed as reduction in viral RNA replication. The class given is functional, organism-based, Hepacivirus hominis. The note with it: Huh-7.
For orientation: EC50 means the concentration that produces a half-maximal response. Consider `COC(=O)N[C@H](C(=O)N1CCC[C@H]1c1nc(-c2ccc(-c3ccc(-c4c[nH]c([C@@H]5CCCN5C(=O)[C@@H](NC(=O)OC)C(C)C)n4)cc3)cc2)c[nH]1)C(C)C`, for which the EC50 came to 0.048 nM.

`COC(=O)N[C@@H](CCSC)C(=O)N1CCC[C@H]1c1ncc(-c2ccc(-c3ccc(-c4cnc([C@@H]5CCCN5C(=O)[C@@H](NC(=O)OC)C(C)C)[nH]4)cc3)cc2)[nH]1`: the EC50 worked out at 0.059 nM.

System in a further data set: not listed separately
As to the kind of experiment: Therapeutic index, ratio of CC50 for african green monkey Vero cells to EC50 for HCV genotype 1b. It counts as cell-based. The note with it: Vero cells (CC50) versus HCV genotype 1b (EC50).
For `COC(=O)N[C@@H](CS(=O)(=O)Cc1ccccc1)C(=O)N1CCC[C@H]1c1ncc(-c2ccc(-c3ccc(-c4cnc([C@@H]5CCCN5C(=O)[C@@H](NC(=O)OC)C(C)C)[nH]4)cc3)cc2)[nH]1`, the selectivity ratio was > 1e+06.

Turning to `COC(=O)N[C@@H](C[S+]([O-])Cc1ccccc1)C(=O)N1CCC[C@H]1c1ncc(-c2ccc(-c3ccc(-c4cnc([C@@H]5CCCN5C(=O)[C@@H](NC(=O)OC)C(C)C)[nH]4)cc3)cc2)[nH]1` (stereo partly specified), the selectivity ratio was > 1e+06.

With `COC(=O)N[C@@H](CCSC)C(=O)N1CCC[C@H]1c1ncc(-c2ccc(-c3ccc(-c4cnc([C@@H]5CCCN5C(=O)[C@@H](NC(=O)OC)C(C)C)[nH]4)cc3)cc2)[nH]1`, the selectivity ratio was > 1e+06.

For a further data set, the system named is Hepatitis C virus. Kind of data set: Antiviral activity against HCV genotype 1b expressing NS5A L31V mutant infected in human HuH7 cells assessed as reduction in viral RNA replication. It counts as functional, organism-based, Hepacivirus hominis. The note with it: Huh-7.
`COC(=O)N[C@H](C(=O)N1CCC[C@H]1c1nc(-c2ccc(-c3ccc(-c4c[nH]c([C@@H]5CCCN5C(=O)[C@@H](NC(=O)OC)C(C)C)n4)cc3)cc2)c[nH]1)C(C)C`: the EC50 was found to be 0.035 nM.

`COC(=O)N[C@@H](CCSC)C(=O)N1CCC[C@H]1c1ncc(-c2ccc(-c3ccc(-c4cnc([C@@H]5CCCN5C(=O)[C@@H](NC(=O)OC)C(C)C)[nH]4)cc3)cc2)[nH]1`: the EC50 was determined as 0.05 nM.

The next data set relates to Vero. As to the kind of experiment: Cytotoxicity against african green monkey Vero cells. As to conditions: chlorocebus sabaeus. The class given is cell-based.
`COC(=O)N[C@@H](CS(=O)(=O)Cc1ccccc1)C(=O)N1CCC[C@H]1c1ncc(-c2ccc(-c3ccc(-c4cnc([C@@H]5CCCN5C(=O)[C@@H](NC(=O)OC)C(C)C)[nH]4)cc3)cc2)[nH]1`: the CC50 was > 100000 nM.

`COC(=O)N[C@@H](C[S+]([O-])Cc1ccccc1)C(=O)N1CCC[C@H]1c1ncc(-c2ccc(-c3ccc(-c4cnc([C@@H]5CCCN5C(=O)[C@@H](NC(=O)OC)C(C)C)[nH]4)cc3)cc2)[nH]1` (stereo partly specified) showed a CC50 of 11000 nM.

`COC(=O)N[C@@H](CCSC)C(=O)N1CCC[C@H]1c1ncc(-c2ccc(-c3ccc(-c4cnc([C@@H]5CCCN5C(=O)[C@@H](NC(=O)OC)C(C)C)[nH]4)cc3)cc2)[nH]1` returned a CC50 of 40000 nM.

System in the next data set: not listed separately
Kind of data set: Cytotoxicity against human HuH7 cells. The class given is cell-based. As to conditions: huh-7.
For `COC(=O)N[C@H](C(=O)N1CCC[C@H]1c1nc(-c2ccc(-c3ccc(-c4c[nH]c([C@@H]5CCCN5C(=O)[C@@H](NC(=O)OC)C(C)C)n4)cc3)cc2)c[nH]1)C(C)C`, the CC50 was > 15000 nM.

As to `COC(=O)N[C@@H](CCSC)C(=O)N1CCC[C@H]1c1ncc(-c2ccc(-c3ccc(-c4cnc([C@@H]5CCCN5C(=O)[C@@H](NC(=O)OC)C(C)C)[nH]4)cc3)cc2)[nH]1`, the cytotoxic concentration (CC50) was > 330000 nM.

The next data set has as its system Hepatitis C virus. Kind of data set: Antiviral activity against HCV genotype 1a. As to conditions: subtype 1a. The class given is functional, organism-based, Hepacivirus hominis.
For `COC(=O)N[C@H](C(=O)N1CCC[C@H]1c1nc(-c2ccc(-c3ccc(-c4c[nH]c([C@@H]5CCCN5C(=O)[C@@H](NC(=O)OC)C(C)C)n4)cc3)cc2)c[nH]1)C(C)C`, the EC50 turned out to be 0.048 nM.

In the case of `COC(=O)N[C@@H](CCSC)C(=O)N1CCC[C@H]1c1ncc(-c2ccc(-c3ccc(-c4cnc([C@@H]5CCCN5C(=O)[C@@H](NC(=O)OC)C(C)C)[nH]4)cc3)cc2)[nH]1`, the EC50 amounted to 0.059 nM.

A further data set relates to Hepatitis C virus. As to the kind of experiment: Antiviral activity against HCV genotype 1b expressing NS5A Y93H mutant infected in human HuH7 cells assessed as reduction in viral RNA replication. It counts as functional, organism-based, Hepacivirus hominis. The note with it: Huh-7.
Regarding `COC(=O)N[C@H](C(=O)N1CCC[C@H]1c1nc(-c2ccc(-c3ccc(-c4c[nH]c([C@@H]5CCCN5C(=O)[C@@H](NC(=O)OC)C(C)C)n4)cc3)cc2)c[nH]1)C(C)C`, the EC50 came to 0.18 nM.

For the compound `COC(=O)N[C@@H](CCSC)C(=O)N1CCC[C@H]1c1ncc(-c2ccc(-c3ccc(-c4cnc([C@@H]5CCCN5C(=O)[C@@H](NC(=O)OC)C(C)C)[nH]4)cc3)cc2)[nH]1`, the EC50 is > 0.11 nM.

A further data set has as its system CCRF-CEM. As to the kind of experiment: Cytotoxicity against human CEM cells.
Settings: not given
The class given is cell-based.
`COC(=O)N[C@@H](CS(=O)(=O)Cc1ccccc1)C(=O)N1CCC[C@H]1c1ncc(-c2ccc(-c3ccc(-c4cnc([C@@H]5CCCN5C(=O)[C@@H](NC(=O)OC)C(C)C)[nH]4)cc3)cc2)[nH]1`: the CC50 is > 100000 nM.

Turning to `COC(=O)N[C@@H](C[S+]([O-])Cc1ccccc1)C(=O)N1CCC[C@H]1c1ncc(-c2ccc(-c3ccc(-c4cnc([C@@H]5CCCN5C(=O)[C@@H](NC(=O)OC)C(C)C)[nH]4)cc3)cc2)[nH]1` (stereo partly specified), the midpoint of cytotoxicity, the CC50, lay at 11000 nM.

Take `COC(=O)N[C@@H](CCSC)C(=O)N1CCC[C@H]1c1ncc(-c2ccc(-c3ccc(-c4cnc([C@@H]5CCCN5C(=O)[C@@H](NC(=O)OC)C(C)C)[nH]4)cc3)cc2)[nH]1`: the CC50 came to 11000 nM.

System in another data set: not listed separately
As to the kind of experiment: Therapeutic index, ratio of CC50 for PBMC (unknown origin) to EC50 for HCV genotype 1b. As to conditions: PBMC (CC50) versus HCV genotype 1b (EC50).
With `COC(=O)N[C@@H](CS(=O)(=O)Cc1ccccc1)C(=O)N1CCC[C@H]1c1ncc(-c2ccc(-c3ccc(-c4cnc([C@@H]5CCCN5C(=O)[C@@H](NC(=O)OC)C(C)C)[nH]4)cc3)cc2)[nH]1`, the selectivity ratio is > 1e+06.

In the case of `COC(=O)N[C@@H](C[S+]([O-])Cc1ccccc1)C(=O)N1CCC[C@H]1c1ncc(-c2ccc(-c3ccc(-c4cnc([C@@H]5CCCN5C(=O)[C@@H](NC(=O)OC)C(C)C)[nH]4)cc3)cc2)[nH]1` (stereo partly specified), the selectivity ratio was > 1e+06.

Take `COC(=O)N[C@@H](CCSC)C(=O)N1CCC[C@H]1c1ncc(-c2ccc(-c3ccc(-c4cnc([C@@H]5CCCN5C(=O)[C@@H](NC(=O)OC)C(C)C)[nH]4)cc3)cc2)[nH]1`: the selectivity ratio was > 1e+06.

System in another data set: not listed separately
Kind of data set: Therapeutic index, ratio of CC50 for human HuH7 cells to EC50 for HCV genotype 1b. As to conditions: HuH7 cells (CC50) versus HCV genotype 1b (EC50). The class given is cell-based, Huh-7.
In the case of `COC(=O)N[C@@H](CS(=O)(=O)Cc1ccccc1)C(=O)N1CCC[C@H]1c1ncc(-c2ccc(-c3ccc(-c4cnc([C@@H]5CCCN5C(=O)[C@@H](NC(=O)OC)C(C)C)[nH]4)cc3)cc2)[nH]1`, the selectivity ratio is > 1e+06.

Consider `COC(=O)N[C@@H](C[S+]([O-])Cc1ccccc1)C(=O)N1CCC[C@H]1c1ncc(-c2ccc(-c3ccc(-c4cnc([C@@H]5CCCN5C(=O)[C@@H](NC(=O)OC)C(C)C)[nH]4)cc3)cc2)[nH]1` (stereo partly specified), for which the selectivity ratio is > 1e+06.

Regarding `COC(=O)N[C@@H](CCSC)C(=O)N1CCC[C@H]1c1ncc(-c2ccc(-c3ccc(-c4cnc([C@@H]5CCCN5C(=O)[C@@H](NC(=O)OC)C(C)C)[nH]4)cc3)cc2)[nH]1`, the selectivity ratio is > 1e+06.

A further data set deals with Hepatitis C virus. Kind of data set: Antiviral activity against HCV genotype 2a. It counts as functional, organism-based, Hepacivirus hominis.
Settings: not given
Compound `COC(=O)N[C@H](C(=O)N1CCC[C@H]1c1nc(-c2ccc(-c3ccc(-c4c[nH]c([C@@H]5CCCN5C(=O)[C@@H](NC(=O)OC)C(C)C)n4)cc3)cc2)c[nH]1)C(C)C` came in with an EC50 of 0.024 nM.

The compound `COC(=O)N[C@@H](CCSC)C(=O)N1CCC[C@H]1c1ncc(-c2ccc(-c3ccc(-c4cnc([C@@H]5CCCN5C(=O)[C@@H](NC(=O)OC)C(C)C)[nH]4)cc3)cc2)[nH]1` had an EC50 of 0.027 nM.

Another data set concerns Hepatitis C virus. As to the kind of experiment: Antiviral activity against HCV genotype 1b infected in human HuH7 cells assessed as reduction in viral RNA replication. As to conditions: Huh-7. It counts as functional, organism-based, Hepacivirus hominis.
Usually EC90 stands for the point of the concentration-response curve where the effect stands at 90%. Consider `COC(=O)N[C@H](C(=O)N1CCC[C@H]1c1nc(-c2ccc(-c3ccc(-c4c[nH]c([C@@H]5CCCN5C(=O)[C@@H](NC(=O)OC)C(C)C)n4)cc3)cc2)c[nH]1)C(C)C`, for which the concentration for a half-maximal effect (EC50) worked out at 0.004 nM and the EC90 turned out to be 0.02 nM.

Turning to `COC(=O)N[C@@H](CS(=O)(=O)Cc1ccccc1)C(=O)N1CCC[C@H]1c1ncc(-c2ccc(-c3ccc(-c4cnc([C@@H]5CCCN5C(=O)[C@@H](NC(=O)OC)C(C)C)[nH]4)cc3)cc2)[nH]1`, the EC50 stood at 0.02 nM and the EC90 was 0.1 nM.

Turning to `COC(=O)N[C@@H](C[S+]([O-])Cc1ccccc1)C(=O)N1CCC[C@H]1c1ncc(-c2ccc(-c3ccc(-c4cnc([C@@H]5CCCN5C(=O)[C@@H](NC(=O)OC)C(C)C)[nH]4)cc3)cc2)[nH]1` (stereo partly specified), the EC50 came out at 0.1 nM and the EC90 came to 0.3 nM.

Take `COC(=O)N[C@@H](CCSC)C(=O)N1CCC[C@H]1c1ncc(-c2ccc(-c3ccc(-c4cnc([C@@H]5CCCN5C(=O)[C@@H](NC(=O)OC)C(C)C)[nH]4)cc3)cc2)[nH]1`: the EC50 came out at 0.03 nM and the 90% effect concentration (EC90) stood at 0.1 nM.
